Experimental data: paper PMC10382584, “Macrocyclization of linear molecules by deep learning to facilitate macrocyclic drug candidates discovery” (Nature Communications, 2023)

Legend:
Assay in all cases: biochemical
Design in all cases: DiscoveRx KINOMEscan competition binding, percent of DMSO control signal at 100 nM
Conditions in all cases: read-out: Fig. 4a / Percent Control / Compound 1; percent of DMSO control, competition binding
CDK4-cyclinD1 = molecular target: T1, CDK4-cyclinD1 (Homo sapiens, UniProt P11802)
T1 construct: cyclinD1

STK39 = STK39 (Homo sapiens, UniProt Q9UEW8)
EGFR = EGFR (Homo sapiens, UniProt P00533)
CLK4 = CLK4 (Homo sapiens, UniProt Q9HAZ1)
CDC2L1 = molecular target: T2, CDC2L1 (Homo sapiens, UniProt P21127)
T2 construct: gene CDK11B

TRPM6 = TRPM6 (Homo sapiens, UniProt Q9BX84)
PIK3C2B = PIK3C2B (Homo sapiens, UniProt O00750)
ULK3 = ULK3 (Homo sapiens, UniProt Q6PHR2)
TSSK1B = TSSK1B (Homo sapiens, UniProt Q9BXA7)
MAP3K4 = MAP3K4 (Homo sapiens, UniProt Q9Y6R4)
FLT3(D835H) = FLT3(D835H) (Homo sapiens, UniProt P36888, D835H)
TAK1 = molecular target: T3, TAK1 (Homo sapiens, UniProt O43318)
T3 construct: gene MAP3K7

BRAF(V600E) = BRAF(V600E) (Homo sapiens, UniProt P15056, V600E)
ABL1-nonphosphorylated = molecular target: T4, ABL1-nonphosphorylated (Homo sapiens, UniProt P00519)
T4 construct: nonphosphorylated

LYN = LYN (Homo sapiens, UniProt P07948)
S6K1 = molecular target: T5, S6K1 (Homo sapiens, UniProt P23443)
T5 construct: gene RPS6KB1

OSR1 = molecular target: T6, OSR1 (Homo sapiens, UniProt O95747)
T6 construct: gene OXSR1

RAF1 = RAF1 (Homo sapiens, UniProt P04049)
NEK4 = NEK4 (Homo sapiens, UniProt P51957)
DRAK2 = molecular target: T7, DRAK2 (Homo sapiens, UniProt O94768)
T7 construct: gene STK17B

CAMK2B = CAMK2B (Homo sapiens, UniProt Q13554)
PIKFYVE = PIKFYVE (Homo sapiens, UniProt Q9Y2I7)
ERBB3 = ERBB3 (Homo sapiens, UniProt P21860)
DYRK2 = DYRK2 (Homo sapiens, UniProt Q92630)
MKNK2 = MKNK2 (Homo sapiens, UniProt Q9HBH9)
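Further: KINOMEscan kinase panel binding assay, signal normalized between DMSO as 100% and a positive control compound as 0%.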

Chain of NEK4 (P51957 whole entry): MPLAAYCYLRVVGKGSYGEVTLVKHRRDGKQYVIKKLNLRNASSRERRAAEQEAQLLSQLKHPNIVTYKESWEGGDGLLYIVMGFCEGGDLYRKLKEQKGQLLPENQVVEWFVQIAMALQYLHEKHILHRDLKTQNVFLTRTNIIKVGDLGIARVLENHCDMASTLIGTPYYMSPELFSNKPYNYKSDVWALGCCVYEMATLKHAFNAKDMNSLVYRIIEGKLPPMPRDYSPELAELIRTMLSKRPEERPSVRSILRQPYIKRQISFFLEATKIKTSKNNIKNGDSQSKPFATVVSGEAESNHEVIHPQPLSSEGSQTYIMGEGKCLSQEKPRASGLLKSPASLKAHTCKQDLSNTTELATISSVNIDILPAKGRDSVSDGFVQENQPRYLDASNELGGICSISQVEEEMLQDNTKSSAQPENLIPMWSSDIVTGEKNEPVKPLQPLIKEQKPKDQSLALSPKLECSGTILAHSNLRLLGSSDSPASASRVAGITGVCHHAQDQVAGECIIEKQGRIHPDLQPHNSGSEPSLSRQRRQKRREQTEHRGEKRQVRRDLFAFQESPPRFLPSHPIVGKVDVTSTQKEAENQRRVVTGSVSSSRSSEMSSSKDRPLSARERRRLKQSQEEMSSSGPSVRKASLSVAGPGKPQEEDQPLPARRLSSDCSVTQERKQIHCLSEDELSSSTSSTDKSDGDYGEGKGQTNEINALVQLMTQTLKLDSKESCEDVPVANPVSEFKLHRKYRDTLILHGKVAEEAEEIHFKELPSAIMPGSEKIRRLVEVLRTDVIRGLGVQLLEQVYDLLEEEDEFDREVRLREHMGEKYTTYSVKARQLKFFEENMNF
T4 sequence (P00519 whole entry): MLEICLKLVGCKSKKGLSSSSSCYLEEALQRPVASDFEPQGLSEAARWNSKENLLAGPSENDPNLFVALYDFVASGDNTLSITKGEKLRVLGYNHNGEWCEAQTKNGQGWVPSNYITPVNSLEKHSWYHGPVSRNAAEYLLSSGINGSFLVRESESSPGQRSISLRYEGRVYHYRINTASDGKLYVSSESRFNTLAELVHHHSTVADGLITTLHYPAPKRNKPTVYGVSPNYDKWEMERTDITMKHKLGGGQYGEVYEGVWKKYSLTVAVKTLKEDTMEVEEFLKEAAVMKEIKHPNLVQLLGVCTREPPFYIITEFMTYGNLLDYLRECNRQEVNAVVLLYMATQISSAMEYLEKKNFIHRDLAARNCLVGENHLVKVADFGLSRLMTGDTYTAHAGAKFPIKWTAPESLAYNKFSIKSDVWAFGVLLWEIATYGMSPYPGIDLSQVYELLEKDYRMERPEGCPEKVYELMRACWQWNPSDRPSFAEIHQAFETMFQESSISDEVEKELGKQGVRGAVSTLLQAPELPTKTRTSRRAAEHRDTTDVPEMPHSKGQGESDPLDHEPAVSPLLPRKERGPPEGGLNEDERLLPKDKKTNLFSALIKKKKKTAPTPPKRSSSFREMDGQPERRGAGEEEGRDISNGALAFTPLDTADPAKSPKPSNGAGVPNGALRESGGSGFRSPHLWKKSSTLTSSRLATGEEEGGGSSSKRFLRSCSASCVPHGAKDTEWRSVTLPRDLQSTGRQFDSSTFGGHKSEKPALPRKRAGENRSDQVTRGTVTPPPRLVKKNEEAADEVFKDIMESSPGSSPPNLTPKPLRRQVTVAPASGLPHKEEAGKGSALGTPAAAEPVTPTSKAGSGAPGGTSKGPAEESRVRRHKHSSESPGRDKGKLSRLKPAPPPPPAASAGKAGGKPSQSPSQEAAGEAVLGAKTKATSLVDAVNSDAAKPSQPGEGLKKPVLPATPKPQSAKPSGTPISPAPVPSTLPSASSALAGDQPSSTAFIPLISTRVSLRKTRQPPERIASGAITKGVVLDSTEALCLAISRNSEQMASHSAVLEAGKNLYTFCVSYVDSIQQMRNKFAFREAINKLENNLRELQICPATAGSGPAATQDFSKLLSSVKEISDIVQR
Chain of TRPM6 (Q9BX84 whole entry): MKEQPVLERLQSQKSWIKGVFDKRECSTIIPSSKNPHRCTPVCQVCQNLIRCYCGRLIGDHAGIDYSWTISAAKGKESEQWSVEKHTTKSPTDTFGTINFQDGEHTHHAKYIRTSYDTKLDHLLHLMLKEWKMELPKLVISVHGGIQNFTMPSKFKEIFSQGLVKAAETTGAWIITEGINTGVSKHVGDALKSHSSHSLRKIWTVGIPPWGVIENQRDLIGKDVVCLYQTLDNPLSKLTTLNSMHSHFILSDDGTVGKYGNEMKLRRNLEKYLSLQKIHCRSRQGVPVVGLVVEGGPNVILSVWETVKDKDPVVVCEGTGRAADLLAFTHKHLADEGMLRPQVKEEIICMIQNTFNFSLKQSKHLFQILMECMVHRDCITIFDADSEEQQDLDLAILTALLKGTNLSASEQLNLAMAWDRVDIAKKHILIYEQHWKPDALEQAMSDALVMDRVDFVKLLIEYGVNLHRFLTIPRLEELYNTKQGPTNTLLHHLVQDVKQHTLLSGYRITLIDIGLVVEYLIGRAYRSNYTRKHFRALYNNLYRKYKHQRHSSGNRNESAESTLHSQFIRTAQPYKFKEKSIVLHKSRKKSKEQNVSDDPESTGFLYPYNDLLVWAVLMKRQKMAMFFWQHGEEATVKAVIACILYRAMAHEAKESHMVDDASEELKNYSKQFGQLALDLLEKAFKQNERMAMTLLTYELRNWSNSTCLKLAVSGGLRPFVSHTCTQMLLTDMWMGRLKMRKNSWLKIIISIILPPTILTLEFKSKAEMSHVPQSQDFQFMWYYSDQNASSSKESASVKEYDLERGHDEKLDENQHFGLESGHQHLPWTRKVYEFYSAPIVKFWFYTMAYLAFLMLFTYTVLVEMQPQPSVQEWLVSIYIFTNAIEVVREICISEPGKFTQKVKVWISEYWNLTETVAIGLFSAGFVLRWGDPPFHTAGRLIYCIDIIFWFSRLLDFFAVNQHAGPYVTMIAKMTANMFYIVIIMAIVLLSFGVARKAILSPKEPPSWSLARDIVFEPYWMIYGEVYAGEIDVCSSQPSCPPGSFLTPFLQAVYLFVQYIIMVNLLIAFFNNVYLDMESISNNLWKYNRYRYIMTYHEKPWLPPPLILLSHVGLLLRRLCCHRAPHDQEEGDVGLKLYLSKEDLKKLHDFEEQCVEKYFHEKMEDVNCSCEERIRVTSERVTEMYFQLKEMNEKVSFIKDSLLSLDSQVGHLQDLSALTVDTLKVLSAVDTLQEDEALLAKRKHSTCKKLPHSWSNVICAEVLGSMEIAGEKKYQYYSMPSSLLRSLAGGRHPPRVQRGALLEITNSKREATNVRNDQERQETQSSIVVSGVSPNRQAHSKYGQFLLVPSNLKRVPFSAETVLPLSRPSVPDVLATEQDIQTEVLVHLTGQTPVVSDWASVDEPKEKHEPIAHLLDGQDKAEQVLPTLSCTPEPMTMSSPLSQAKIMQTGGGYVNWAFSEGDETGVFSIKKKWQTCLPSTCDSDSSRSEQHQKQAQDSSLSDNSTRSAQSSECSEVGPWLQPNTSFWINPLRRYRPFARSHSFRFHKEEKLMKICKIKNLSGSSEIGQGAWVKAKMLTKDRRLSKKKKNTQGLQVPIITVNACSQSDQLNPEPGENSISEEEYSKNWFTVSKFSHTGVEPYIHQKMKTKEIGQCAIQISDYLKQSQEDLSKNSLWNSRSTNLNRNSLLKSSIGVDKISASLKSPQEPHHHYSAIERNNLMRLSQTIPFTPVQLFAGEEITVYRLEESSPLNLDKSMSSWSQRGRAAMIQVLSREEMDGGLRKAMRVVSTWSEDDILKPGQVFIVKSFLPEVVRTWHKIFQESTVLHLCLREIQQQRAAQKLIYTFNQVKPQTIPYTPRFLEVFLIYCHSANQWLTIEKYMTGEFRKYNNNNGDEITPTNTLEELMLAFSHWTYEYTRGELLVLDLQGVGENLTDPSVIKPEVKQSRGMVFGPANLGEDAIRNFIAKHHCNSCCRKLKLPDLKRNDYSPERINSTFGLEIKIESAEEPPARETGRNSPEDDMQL
Chain of CLK4 (Q9HAZ1 whole entry): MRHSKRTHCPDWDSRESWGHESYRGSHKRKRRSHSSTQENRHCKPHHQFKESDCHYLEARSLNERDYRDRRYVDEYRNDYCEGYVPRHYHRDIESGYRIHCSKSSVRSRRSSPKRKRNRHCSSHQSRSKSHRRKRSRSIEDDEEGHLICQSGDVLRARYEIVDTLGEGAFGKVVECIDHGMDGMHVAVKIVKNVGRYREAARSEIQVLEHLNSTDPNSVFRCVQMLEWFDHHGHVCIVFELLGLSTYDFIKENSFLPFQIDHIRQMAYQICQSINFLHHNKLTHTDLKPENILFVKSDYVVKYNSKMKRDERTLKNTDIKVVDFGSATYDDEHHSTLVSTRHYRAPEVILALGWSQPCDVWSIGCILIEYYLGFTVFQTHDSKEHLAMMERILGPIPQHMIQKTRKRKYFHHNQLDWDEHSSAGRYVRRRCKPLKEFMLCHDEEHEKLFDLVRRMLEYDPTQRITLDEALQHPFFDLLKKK
Chain of ULK3 (Q6PHR2 whole entry): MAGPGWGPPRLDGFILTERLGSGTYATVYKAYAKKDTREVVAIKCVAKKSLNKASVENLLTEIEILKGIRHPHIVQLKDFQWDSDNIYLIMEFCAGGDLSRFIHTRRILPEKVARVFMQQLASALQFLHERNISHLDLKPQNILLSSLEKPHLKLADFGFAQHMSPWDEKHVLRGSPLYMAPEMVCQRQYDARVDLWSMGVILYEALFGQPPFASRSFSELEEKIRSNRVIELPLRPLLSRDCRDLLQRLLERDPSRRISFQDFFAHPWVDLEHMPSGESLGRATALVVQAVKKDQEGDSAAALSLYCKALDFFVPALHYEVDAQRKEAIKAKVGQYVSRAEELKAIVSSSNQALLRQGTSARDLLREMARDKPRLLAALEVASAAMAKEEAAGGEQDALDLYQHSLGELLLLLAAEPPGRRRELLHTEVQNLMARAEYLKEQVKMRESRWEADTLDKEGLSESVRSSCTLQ

SMILES: Cc1cnc2nc1Nc1cccc(c1)COCc1cc(ccc1OCCN1CCCC1)N2 [Compound 1]
- remaining binding at 0.1 µM (CDK4-cyclinD1): 76%
- remaining binding at 0.1 µM (STK39): 62%
- remaining binding at 0.1 µM (EGFR): 81%
- remaining binding at 0.1 µM (CLK4): 94%
- remaining binding at 0.1 µM (CDC2L1): 96%
- remaining binding at 0.1 µM (TRPM6): 85%
- remaining binding at 0.1 µM (PIK3C2B): 97%
- remaining binding at 0.1 µM (ULK3): 85%
- remaining binding at 0.1 µM (TSSK1B): 92%
- remaining binding at 0.1 µM (MAP3K4): 100%
- remaining binding at 0.1 µM (FLT3(D835H)): 46%
- remaining binding at 0.1 µM (TAK1): 67%
- remaining binding at 0.1 µM (BRAF(V600E)): 93%
- remaining binding at 0.1 µM (ABL1-nonphosphorylated): 55%
- remaining binding at 0.1 µM (LYN): 92%
- remaining binding at 0.1 µM (S6K1): 98%
- remaining binding at 0.1 µM (OSR1): 66%
- remaining binding at 0.1 µM (RAF1): 98%
- remaining binding at 0.1 µM (NEK4): 79%
- remaining binding at 0.1 µM (DRAK2): 100%
- remaining binding at 0.1 µM (CAMK2B): 94%
- remaining binding at 0.1 µM (PIKFYVE): 100%
- remaining binding at 0.1 µM (ERBB3): 100%
- remaining binding at 0.1 µM (DYRK2): 90%
- remaining binding at 0.1 µM (MKNK2): 67%
